Test systems include TK-10 renal; UACC-257 melanoma; HT29 colon; IGROV1 ovarian; SF-268 CNS; SNB-19 CNS; 786-0 renal; K-562 leukemia; SK-MEL-28 melanoma; RXF 393 renal; MDA-N; U251 CNS; UACC-62 melanoma; CAKI-1 renal; MALME-3M melanoma; NCI-H460 lung; SK-OV-3 ovarian; LOX IMVI melanoma; HOP-62 NSCLC; A549 NSCLC.
Common to all, as to assay: NCI tumour cell line growth inhibition, 48 h

The values that follow come from PubChem BioAssay (NCI).

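The compound was tested at five concentrations on cells cultured in 96-well plates, with a 48-hour exposure period. The concentration for full growth arrest is given as TGI.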

For `COCn1c(C)c(C)c2c(=O)oc(C)nc21`, the TGI in the assay with TK-10 renal, in the assay with UACC-257 melanoma, in the assay on HT29 colon, with IGROV1 ovarian, in the assay on SF-268 CNS and in the assay on SNB-19 CNS was > 100 µM throughout. For the same compound, the TGI in the assay with 786-0 renal, in the assay on K-562 leukemia, in the assay on SK-MEL-28 melanoma, with RXF 393 renal, in the assay with MDA-N and with U251 CNS was > 100 µM throughout. The TGI in the assay on UACC-62 melanoma is > 100 µM; in the assay with CAKI-1 renal it was 45 µM; in the assay with MALME-3M melanoma, > 100 µM; in the assay with NCI-H460 lung, > 100 µM; with SK-OV-3 ovarian it was > 100 µM; with LOX IMVI melanoma, > 100 µM. Also, the TGI in the assay with HOP-62 NSCLC and in the assay with A549 NSCLC was > 100 µM in each case.
With `C=CCn1c(-c2ccc(Cl)cc2Cl)csc1=Nc1c(C)n(C)n(-c2ccccc2)c1=O`, the TGI worked out at 25.7 µM in the assay with TK-10 renal; 19.2 µM with UACC-257 melanoma; 25.3 µM in the assay with HT29 colon; 31.5 µM in the assay with IGROV1 ovarian; 33.4 µM in the assay with SF-268 CNS; 24.7 µM in the assay with SNB-19 CNS. In addition, the TGI was found to be 26.7 µM with 786-0 renal; 8.38 µM with K-562 leukemia; 26.7 µM with SK-MEL-28 melanoma; 32.1 µM in the assay on RXF 393 renal; 22.4 µM in the assay with MDA-N; 25.1 µM in the assay on U251 CNS. Further, the TGI is 22.5 µM with UACC-62 melanoma; 31.7 µM in the assay on CAKI-1 renal; 31.4 µM in the assay on MALME-3M melanoma; 27.1 µM in the assay with NCI-H460 lung; 19.4 µM with SK-OV-3 ovarian; 23.9 µM in the assay with LOX IMVI melanoma. In addition, the TGI was found to be 29.7 µM in the assay on HOP-62 NSCLC and 23.1 µM with A549 NSCLC.
Turning to `Nc1c2c(nc3ccccc13)CCCc1ccccc1-2`, the TGI in the assay with TK-10 renal came to 18.8 µM; in the assay with UACC-257 melanoma it was 27.1 µM; in the assay on HT29 colon it was 22.5 µM; with IGROV1 ovarian, 26.3 µM; with SF-268 CNS it was 38.4 µM; in the assay on SNB-19 CNS, 52.9 µM. Moreover, the TGI was 24.9 µM in the assay on 786-0 renal; > 100 µM with K-562 leukemia; 25 µM in the assay on SK-MEL-28 melanoma; 24.7 µM with RXF 393 renal; 17.2 µM with MDA-N; 24.7 µM with U251 CNS. Further, the TGI with UACC-62 melanoma was 20.8 µM; in the assay with CAKI-1 renal, 40.9 µM; with MALME-3M melanoma it was 33.5 µM; in the assay on NCI-H460 lung it was 14.5 µM; in the assay on SK-OV-3 ovarian it was > 100 µM; with LOX IMVI melanoma it was 22.1 µM. Further, the TGI with HOP-62 NSCLC was 28 µM; in the assay with A549 NSCLC, 49 µM.
With `COC(=O)c1ccc(C)cc1CC1Cc2c(C)cccc2C1=O` (stereo not given), the TGI was > 54.6 µM in the assay on TK-10 renal; 49 µM with UACC-257 melanoma; 11.1 µM with HT29 colon; 80.1 µM in the assay with IGROV1 ovarian; 44.7 µM in the assay with SF-268 CNS; 89.7 µM with SNB-19 CNS. Also, the TGI in the assay with 786-0 renal is 34.8 µM; in the assay with K-562 leukemia, > 34.4 µM; in the assay with SK-MEL-28 melanoma, 84.7 µM; in the assay on RXF 393 renal, 34.3 µM; with MDA-N, 4.82 µM; with U251 CNS, 20.8 µM. The TGI was 22 µM in the assay with UACC-62 melanoma; 30.8 µM in the assay on CAKI-1 renal; 45.1 µM in the assay with MALME-3M melanoma; > 78.3 µM in the assay on NCI-H460 lung; 43.2 µM with SK-OV-3 ovarian; 32.2 µM with LOX IMVI melanoma. Besides, the TGI was > 53.4 µM in the assay on HOP-62 NSCLC and > 60.5 µM with A549 NSCLC.
On to `NC(N)=NS(=O)(=O)c1ccc(NC(=O)c2ccc3nc4ccccc4c(N)c3c2)cc1`, for which the TGI in the assay on TK-10 renal, in the assay with UACC-257 melanoma, in the assay with HT29 colon, in the assay on IGROV1 ovarian, in the assay on SF-268 CNS and in the assay on SNB-19 CNS was > 100 µM each time. The TGI in the assay on 786-0 renal, with K-562 leukemia, with SK-MEL-28 melanoma, in the assay on RXF 393 renal, with MDA-N and with U251 CNS was > 100 µM throughout. Also, the TGI with UACC-62 melanoma, with CAKI-1 renal, in the assay on MALME-3M melanoma, in the assay with NCI-H460 lung, in the assay on SK-OV-3 ovarian and in the assay on LOX IMVI melanoma was > 100 µM in each case. Further, the TGI in the assay with HOP-62 NSCLC and with A549 NSCLC was > 100 µM each time.
As for `Cc1cccc(C(=O)O)c1CC1NCCC2c3ccccc3NC12` (stereo not given), the TGI in the assay on TK-10 renal, in the assay with UACC-257 melanoma, in the assay with HT29 colon, in the assay on IGROV1 ovarian, in the assay on SF-268 CNS and with SNB-19 CNS was > 100 µM each time. Moreover, the TGI in the assay with 786-0 renal, with K-562 leukemia, with SK-MEL-28 melanoma, in the assay with RXF 393 renal, in the assay on MDA-N and in the assay on U251 CNS was > 100 µM throughout. Moreover, the TGI in the assay with UACC-62 melanoma, with CAKI-1 renal, with MALME-3M melanoma, with NCI-H460 lung, in the assay on SK-OV-3 ovarian and in the assay on LOX IMVI melanoma was > 100 µM throughout. The TGI in the assay with HOP-62 NSCLC and with A549 NSCLC was > 100 µM each time.
